# PubChem BioAssay (NCI)
#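 GI50 marks 50% less growth. TGI: concentration producing complete growth inhibition.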
# How the values were obtained:
# Test in all cases: growth of human tumour cells (NCI), 384-well format
# A498 renal = tested on: A498 renal
# MDA-MB-231 breast = tested on: MDA-MB-231 breast
# MDA-MB-435 melanoma = tested on: MDA-MB-435 melanoma
# HL-60(TB) leukemia = tested on: HL-60(TB) leukemia
# SF-268 CNS = tested on: SF-268 CNS
# ACHN renal = tested on: ACHN renal
# LOX IMVI melanoma = tested on: LOX IMVI melanoma
# K-562 leukemia = tested on: K-562 leukemia
# SK-MEL-28 melanoma = tested on: SK-MEL-28 melanoma
# SR leukemia = tested on: SR leukemia
# HS 578T breast = tested on: HS 578T breast
# 786-0 renal = tested on: 786-0 renal
# MALME-3M melanoma = tested on: MALME-3M melanoma
# BT-549 breast = tested on: BT-549 breast
# IGROV1 ovarian = tested on: IGROV1 ovarian
# A549 NSCLC = tested on: A549 NSCLC
# TK-10 renal = tested on: TK-10 renal
# OVCAR-4 ovarian = tested on: OVCAR-4 ovarian
# OVCAR-5 ovarian = tested on: OVCAR-5 ovarian
# KM12 colon = tested on: KM12 colon
# MCF7 breast = tested on: MCF7 breast
# T-47D breast = tested on: T-47D breast
# HT29 colon = tested on: HT29 colon
# HCT-116 colon = tested on: HCT-116 colon
# HOP-62 NSCLC = tested on: HOP-62 NSCLC
# SNB-19 CNS = tested on: SNB-19 CNS
# NCI-H23 lung = tested on: NCI-H23 lung
# NCI/ADR-RES ovarian = tested on: NCI/ADR-RES ovarian
# OVCAR-3 ovarian = tested on: OVCAR-3 ovarian
# NCI-H322M lung = tested on: NCI-H322M lung
# UACC-62 melanoma = tested on: UACC-62 melanoma
# PC-3 prostate = tested on: PC-3 prostate
# EKVX NSCLC = tested on: EKVX NSCLC
# HCC-2998 colon = tested on: HCC-2998 colon
# DU-145 prostate = tested on: DU-145 prostate
# SF-295 CNS = tested on: SF-295 CNS
# SW-620 colon = tested on: SW-620 colon
# SK-MEL-2 melanoma = tested on: SK-MEL-2 melanoma
# NCI-H226 lung = tested on: NCI-H226 lung
# COLO 205 colon = tested on: COLO 205 colon
# SK-MEL-5 melanoma = tested on: SK-MEL-5 melanoma
# NCI-H522 lung = tested on: NCI-H522 lung
# NCI-H460 NSCLC = tested on: NCI-H460 NSCLC
# HCT-15 colon = tested on: HCT-15 colon
# OVCAR-8 ovarian = tested on: OVCAR-8 ovarian
# CAKI-1 renal = tested on: CAKI-1 renal
# SK-OV-3 ovarian = tested on: SK-OV-3 ovarian
structure (smiles),measurement,setting,value
NS(=O)(=O)NCCNc1nonc1C(=Nc1ccc(F)c(Br)c1)NO,GI50,A498 renal,4.27 µM
same,TGI,A498 renal,> 80.2 µM
same,GI50,MDA-MB-231 breast,67.2 µM
same,TGI,MDA-MB-231 breast,> 100 µM
same,GI50,MDA-MB-435 melanoma,42.5 µM
same,TGI,MDA-MB-435 melanoma,> 100 µM
same,GI50,HL-60(TB) leukemia,18.9 µM
same,TGI,HL-60(TB) leukemia,33.2 µM
same,GI50,SF-268 CNS,33.9 µM
same,TGI,SF-268 CNS,> 100 µM
same,GI50,ACHN renal,36.6 µM
same,TGI,ACHN renal,> 100 µM
same,GI50,LOX IMVI melanoma,34.5 µM
same,TGI,LOX IMVI melanoma,> 100 µM
same,GI50,K-562 leukemia,27.8 µM
same,TGI,K-562 leukemia,> 100 µM
same,GI50,SK-MEL-28 melanoma,42.7 µM
same,TGI,SK-MEL-28 melanoma,> 100 µM
same,GI50,SR leukemia,14.6 µM
same,TGI,SR leukemia,28.9 µM
same,GI50,HS 578T breast,25.3 µM
same,TGI,HS 578T breast,87.4 µM
same,GI50,786-0 renal,35.1 µM
same,TGI,786-0 renal,> 100 µM
same,GI50,MALME-3M melanoma,30.5 µM
same,TGI,MALME-3M melanoma,> 100 µM
same,GI50,BT-549 breast,5.97 µM
same,TGI,BT-549 breast,> 56.3 µM
same,GI50,IGROV1 ovarian,37.4 µM
same,TGI,IGROV1 ovarian,> 100 µM
same,GI50,A549 NSCLC,30.9 µM
same,TGI,A549 NSCLC,> 100 µM
same,GI50,TK-10 renal,28.8 µM
same,TGI,TK-10 renal,> 89.2 µM
same,GI50,OVCAR-4 ovarian,21.4 µM
same,TGI,OVCAR-4 ovarian,72.5 µM
same,GI50,OVCAR-5 ovarian,49.9 µM
same,TGI,OVCAR-5 ovarian,> 100 µM
same,GI50,KM12 colon,8.9 µM
same,TGI,KM12 colon,> 100 µM
same,GI50,MCF7 breast,38.8 µM
same,TGI,MCF7 breast,> 100 µM
same,GI50,T-47D breast,23.9 µM
same,TGI,T-47D breast,> 74.5 µM
same,GI50,HT29 colon,41 µM
same,TGI,HT29 colon,> 100 µM
same,GI50,HCT-116 colon,36.6 µM
same,TGI,HCT-116 colon,> 100 µM
same,GI50,HOP-62 NSCLC,39.9 µM
same,TGI,HOP-62 NSCLC,> 100 µM
same,GI50,SNB-19 CNS,42.1 µM
same,TGI,SNB-19 CNS,> 100 µM
same,GI50,NCI-H23 lung,27.1 µM
same,TGI,NCI-H23 lung,> 100 µM
same,GI50,NCI/ADR-RES ovarian,> 100 µM
same,TGI,NCI/ADR-RES ovarian,> 100 µM
same,GI50,OVCAR-3 ovarian,24 µM
same,TGI,OVCAR-3 ovarian,76.8 µM
same,GI50,NCI-H322M lung,34.2 µM
same,TGI,NCI-H322M lung,> 100 µM
same,GI50,UACC-62 melanoma,24.5 µM
same,TGI,UACC-62 melanoma,> 100 µM
same,GI50,PC-3 prostate,6.11 µM
same,TGI,PC-3 prostate,> 100 µM
same,GI50,EKVX NSCLC,31.8 µM
same,TGI,EKVX NSCLC,> 100 µM
same,GI50,HCC-2998 colon,22.5 µM
same,TGI,HCC-2998 colon,51.7 µM
same,GI50,DU-145 prostate,48.2 µM
same,TGI,DU-145 prostate,> 100 µM
same,GI50,SF-295 CNS,11.7 µM
same,TGI,SF-295 CNS,> 78.6 µM
same,GI50,SW-620 colon,42.2 µM
same,TGI,SW-620 colon,> 100 µM
same,GI50,SK-MEL-2 melanoma,20.1 µM
same,TGI,SK-MEL-2 melanoma,47.1 µM
same,GI50,NCI-H226 lung,20.8 µM
same,TGI,NCI-H226 lung,> 84.4 µM
same,GI50,COLO 205 colon,21.8 µM
same,TGI,COLO 205 colon,> 60.6 µM
same,GI50,SK-MEL-5 melanoma,35.9 µM
same,TGI,SK-MEL-5 melanoma,> 92.6 µM
same,GI50,NCI-H522 lung,16.5 µM
same,TGI,NCI-H522 lung,47.7 µM
same,GI50,NCI-H460 NSCLC,27.4 µM
same,TGI,NCI-H460 NSCLC,73 µM
same,GI50,HCT-15 colon,51.6 µM
same,TGI,HCT-15 colon,> 100 µM
same,GI50,OVCAR-8 ovarian,46.9 µM
same,TGI,OVCAR-8 ovarian,> 100 µM
same,GI50,CAKI-1 renal,5.66 µM
same,TGI,CAKI-1 renal,> 100 µM
same,GI50,SK-OV-3 ovarian,10.9 µM
same,TGI,SK-OV-3 ovarian,> 100 µM
